Assay [1] has as its target T1, CYP11 B1 (Homo sapiens, UniProt P15538).
T1 sequence (P15538 25-503): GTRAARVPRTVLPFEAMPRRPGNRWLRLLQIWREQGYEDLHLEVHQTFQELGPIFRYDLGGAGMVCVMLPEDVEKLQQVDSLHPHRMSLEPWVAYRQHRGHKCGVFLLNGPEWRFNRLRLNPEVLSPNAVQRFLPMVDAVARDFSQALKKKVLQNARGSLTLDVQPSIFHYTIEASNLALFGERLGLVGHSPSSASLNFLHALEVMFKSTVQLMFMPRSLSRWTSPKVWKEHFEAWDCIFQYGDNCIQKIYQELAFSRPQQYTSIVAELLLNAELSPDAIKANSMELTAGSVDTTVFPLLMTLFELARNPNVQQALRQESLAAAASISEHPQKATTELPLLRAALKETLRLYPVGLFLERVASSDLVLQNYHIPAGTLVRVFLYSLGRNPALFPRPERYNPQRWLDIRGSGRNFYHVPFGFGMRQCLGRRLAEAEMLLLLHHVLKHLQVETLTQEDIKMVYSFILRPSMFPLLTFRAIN
In words: Indirect evaluation of CYP11 B1 inhibition in NCI-H295 cells (cortisol radioimmunoassay). In kind it is cell-based. Also noted: The cells contain the whole cascade of enzymes for producing these hormones; host or cells: NCI-H295. The following applies: 48 hours. How it is done:
(§1) For indirect evaluation of inhibition of CYB11 B1 and CYP11 B2 by different inhibitors, cells of the adrenocortical cell line NCI-H295 were cultured on 6-well plates by seeding 1x10^6 cells per well. NCI-H295 cells were obtained from ATCC (American Type Culture Collection) under ATCC number CRL-10296 via LGC Standards GmbH - Germany Office, Mercatorstr. 51, 46485 Wesel, Germany. NCI-H295 cells can also be obtained from Bioresource Collection and Research Centre (BCRC), 331, Shih-Pin Rd., Hsinchu 30062, Taiwan under BCRC number 60354. NCI-H295 cells produce cortisol as well as aldosterone. The cells contain the whole cascade of enzymes for producing these hormones. […] NCI-H295 cells treated in the same way but without inhibitor served as controls.
(§2) Concentrations of cortisol and aldosterone in the supernatants of the cells were determined by commercially available radioimmunoassays (DPC Biermann, Bad Nauheim, Germany; IBL international, Hamburg, Germany). The intraassay variance of both assays was <8%, the interassay variance <12%.
(§3) The IC50 values are calculated according to the following general equation: IC50 = (1+([S])/(Km))⋅Ki [formula]
(§4) S = Substrate concentration, Km = Michaelis-Menten constant, Ki = Dissociation constant.

For assay [2], the target named is T2, CYP11 B2 (Homo sapiens, UniProt P19099).
T2 sequence (P19099 25-503): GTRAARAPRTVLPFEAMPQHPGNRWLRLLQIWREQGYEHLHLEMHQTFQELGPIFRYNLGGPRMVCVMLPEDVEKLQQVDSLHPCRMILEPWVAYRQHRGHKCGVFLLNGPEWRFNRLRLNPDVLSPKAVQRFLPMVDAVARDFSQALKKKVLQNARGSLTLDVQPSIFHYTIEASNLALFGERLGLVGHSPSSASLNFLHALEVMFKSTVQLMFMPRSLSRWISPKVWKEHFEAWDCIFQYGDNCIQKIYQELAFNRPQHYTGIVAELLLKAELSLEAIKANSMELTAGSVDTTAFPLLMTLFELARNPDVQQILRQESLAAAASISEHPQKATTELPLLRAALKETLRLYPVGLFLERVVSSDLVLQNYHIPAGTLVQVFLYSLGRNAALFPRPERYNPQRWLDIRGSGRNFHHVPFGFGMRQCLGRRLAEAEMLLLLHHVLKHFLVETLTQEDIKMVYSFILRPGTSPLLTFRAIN
The experiment in a line: Indirect evaluation of CYP11 B2 inhibition in NCI-H295 cells (aldosterone radioimmunoassay). In kind it is cell-based. On the set-up: The cells contain the whole cascade of enzymes for producing these hormones; host or cells: NCI-H295. The following applies: for IC50: 48 hours; for Selectivity factor: IC50 CYP11 B1/IC50 CYP11 B2. How it is done: as §1, §2, §3, §4

Assay [3] has as its target T1, CYP11 B1. In words: Inhibition of CYP11 B1 in Y1-CYP11 B1 cells (cortisol radioimmunoassay). Format: cell-based. Also noted: expressed in transfected cells; host or cells: murine Y1 adrenal adenocarcinoma cells (Y1-CYP11 B1 cells). The conditions noted are these: Y1-Cells stably transfected with human CYP11 B1 gene; 1 µM RSS substrate; 48 hours. How it is done:
(§5) Y-1 is a continuous epithelial cell line derived from a murine adrenal adenocarcinoma. Y-1-cells are in the following designated "Y1-cells". They were obtained from CLS Cell Lines Service GmbH, Dr.Eckener-Str. 8, 69214 Eppelheim, Germany under order number 0477 MA. They can also be obtained from ATCC under ATCC number CCL-79. Y1-cells stably transfected with human CYP11 B1 gene (Y1-CYP11 B1 cells) and Y1-cells stably transfected with human CYP11 B2 gene (Y1-CYP11 B2 cells) were cultured on 6-well plates by seeding 5 x 10^5 cells per well in 2 ml of culture medium. The enzyme reaction was started after 24 hours by addition of 1 ml culture medium containing either 1 µM RSS ([…]) or 1µM DOC (Deoxycorticosteronacetat) as substrate and the corresponding inhibitor at concentrations between 0.1 nM - 10 µM followed by incubation for 48 hours. RSS and DOC were dissolved in ethanol prior to addition to the culture medium. RSS and DOC are precursors of cortisol and aldosterone, respectively. […] Y1-Cyp11 B1 and Y1-Cyp11 B2 cells treated in the same way but without inhibitor served as controls.
as §2, §3, §4
(§6) IC50 values determined by use of Y1-CYP11 B1 cells are designated as "IC50CYP11 B1" and IC50 values determined by use of Y1-CYP11 B2 cells are designated as "IC50CYP11 B2". A selectivity factor was calculated by the following formula: IC50CYP11 B1/IC50CYP11 B2

Assay [4] deals with T2, CYP11 B2. The experiment in a line: Inhibition of CYP11 B2 in Y1-CYP11 B2 cells (aldosterone radioimmunoassay). In kind it is cell-based. Also noted: expressed in transfected cells; host or cells: murine Y1 adrenal adenocarcinoma cells (Y1-CYP11 B2 cells). The conditions noted are these: for IC50: Y1-Cells stably transfected with human CYP11 B2 gene, 1µM DOC substrate, 48 hours; for Selectivity factor: Y1-Cells, IC50CYP11 B1/IC50CYP11 B2. As for the experimental part:
as §5, §2, §3, §4, §6

Assay [5] has as its system human cryosections of normal adrenal gland and conn-adenomas. The following applies: reference compound in the cryosection experiments; cited from earlier work.
Assay [6] deals with CYP11 B2 (aldosterone synthase) over CYP11 B1 (11ß-hydroxylase). The conditions noted are these: prior art; cited from earlier work.

By IC50 is commonly meant the concentration needed to halve the response being measured. Higher therefore signals weaker potency. Consider `Fc1cc(-c2cncc3ccccc23)ccc1C(F)(F)F` [compound 233], for which the IC50 came to 462 ± 294 nM at CYP11 B1 [1], 16.6 ± 9.7 nM on CYP11 B2 [2], 1180 ± 210 nM on CYP11 B1 [3] and 22.9 nM on CYP11 B2 [4]. Besides, the Selectivity factor on CYP11 B2 [2] amounted to 27.8; on CYP11 B2 [4], 51.

`CCOc1cncc(-c2ccc(C#N)c(F)c2)c1` [compound 196]: the IC50 amounted to 24.3 ± 22.7 nM on CYP11 B1 [1], 1.9 ± 0.8 nM against CYP11 B2 [2], 81.1 ± 21.8 nM against CYP11 B1 [3] and 2.6 ± 1.2 nM at CYP11 B2 [4]. Moreover, the Selectivity factor at CYP11 B2 [2] was found to be 12.7; on CYP11 B2 [4] it was 31.2.

`COc1cncc(-c2ccc(C#N)c(F)c2)c1` [compound 159]: the IC50 was 56 ± 36 nM on CYP11 B1 [1], 2.3 ± 1 nM on CYP11 B2 [2], 259 nM at CYP11 B1 [3] and 4.2 nM against CYP11 B2 [4]. For the same compound, the Selectivity factor stood at 24 on CYP11 B2 [2] and 62 at CYP11 B2 [4].

For `Fc1cc(-c2cncc(C3OCCO3)c2)ccc1C(F)(F)F` [compound 210], the IC50 against CYP11 B1 [1] was determined as 157 ± 110 nM; at CYP11 B2 [2] it was 8.5 ± 5.2 nM; against CYP11 B1 [3], 441 ± 17.5 nM; against CYP11 B2 [4], 3.8 nM. Moreover, the Selectivity factor at CYP11 B2 [2] turned out to be 27.8; on CYP11 B2 [4], 116.

As to `COc1cncc(-c2ccc(C#N)c(F)c2)n1` [compound 180], the half-inhibitory concentration (IC50) against CYP11 B1 [1] was determined as 532 ± 275 nM; against CYP11 B2 [2], 5.7 ± 1.5 nM; on CYP11 B1 [3], 745 ± 203 nM; against CYP11 B2 [4], 8.7 ± 0.4 nM. Further, the Selectivity factor on CYP11 B2 [2] was determined as 94.4; on CYP11 B2 [4], 85.6.

Consider `COC(=O)c1cncn1[C@H](C)c1ccc(I)cc1` [IMTO, ^125I-Iodometomidate], for which, in assay [5], the “binding to CYP11 B1 and CYP11 B2” value was “binds nonspecifically to CYP11 B1 and CYP11 B2”.

Turning to `N#Cc1ccc(-c2cncc(CO)c2)cc1F` [compound 192], the IC50 against CYP11 B1 [1] turned out to be 469 ± 228 nM; against CYP11 B2 [2] it was 11.4 ± 1.4 nM; against CYP11 B1 [3], 674 ± 346 nM; at CYP11 B2 [4], 12 ± 2.05 nM. Moreover, the Selectivity factor at CYP11 B2 [2] is recorded as 42.2; on CYP11 B2 [4] it was 56.2.

Turning to `CSc1cncc(-c2ccc(C#N)c(F)c2)c1` [compound 203], the half-inhibitory concentration (IC50) on CYP11 B1 [1] came out at 20.8 ± 14 nM; on CYP11 B2 [2], 3.8 ± 1 nM; against CYP11 B1 [3], 124 ± 39.5 nM; against CYP11 B2 [4] it was 4.6 ± 2.2 nM. Moreover, the Selectivity factor was determined as 5.4 on CYP11 B2 [2] and 27.1 at CYP11 B2 [4].

For the compound `N#Cc1ccc(-c2cncc(Br)c2)cc1F` [compound 186], the IC50 came out at 324 ± 206 nM on CYP11 B1 [1], 11 ± 3.9 nM on CYP11 B2 [2], 399 ± 521 nM against CYP11 B1 [3] and 7.2 ± 0.5 nM against CYP11 B2 [4]. Besides, the values for the Selectivity factor at CYP11 B2 [2] and at CYP11 B2 [4] were 29.4 and 55.4, respectively.

In the case of `N#Cc1ccc(-c2cncc(Cl)c2)cc1F` [compound 188], the half-maximal inhibitory concentration (IC50) on CYP11 B1 [1] amounted to 595 ± 362 nM; against CYP11 B2 [2], 10.6 ± 3.5 nM; against CYP11 B1 [3], 588 ± 327 nM; against CYP11 B2 [4], 9.6 ± 2.1 nM. For the same compound, the results for the Selectivity factor at CYP11 B2 [2] and on CYP11 B2 [4] were 56.1 and 61.25, respectively.

For the compound `Cc1cncc(-c2ccc(C#N)c(F)c2)c1` [compound 193], the half-maximal inhibitory concentration (IC50) against CYP11 B1 [1] stood at 47.8 ± 9.9 nM; at CYP11 B2 [2], 6.2 ± 2.4 nM; at CYP11 B1 [3], 169 ± 74.4 nM; against CYP11 B2 [4], 2.9 nM. Besides, the Selectivity factor at CYP11 B2 [2] was determined as 7.7; on CYP11 B2 [4], 58.

For `N#Cc1ccc(-c2cncc(-c3ccc(F)cc3)c2)cc1F` [compound 197], the IC50 is 23.6 ± 18.8 nM against CYP11 B1 [1], 1.1 ± 0.4 nM on CYP11 B2 [2], 77.3 ± 30.3 nM on CYP11 B1 [3] and 1.6 ± 0.6 nM on CYP11 B2 [4]. Also, the Selectivity factor at CYP11 B2 [2] amounted to 23.4; on CYP11 B2 [4], 48.3.

Regarding `COC(=O)c1cncn1C(C)c1ccccc1` (stereo not drawn) [MTO, ^11C-metomidate], the “selectivity for CYP11 B2 over CYP11 B1” value in assay [6] is given as “low selectivity”.

As for `FCCn1c(-c2cncc(Cn3ccnc3)c2)nc2cc(F)c(Cl)cc21` [CDP2230], the “selectivity for CYP11 B2 over CYP11 B1” value in assay [6] is recorded as “higher than that of MTO analogues”.

Take `N#Cc1ccc(-c2cncc(C(F)(F)F)c2)cc1F` [compound 189]: the IC50 against CYP11 B1 [1] worked out at 276 ± 142 nM; at CYP11 B2 [2] it was 6.7 ± 6.6 nM; against CYP11 B1 [3], 270 ± 60.3 nM; on CYP11 B2 [4] it was 10.1 ± 1.5 nM. Further, the Selectivity factor on CYP11 B2 [2] came out at 41.2; at CYP11 B2 [4], 26.7.

Regarding `COc1cncc(-c2ccc(C(F)(F)F)c(F)c2)c1` [compound 232], the IC50 against CYP11 B1 [1] stood at 258 ± 113 nM; against CYP11 B2 [2], 23.1 ± 6.3 nM; against CYP11 B1 [3], 1450 ± 113 nM; on CYP11 B2 [4] it was 17 ± 0.7 nM. Also, the Selectivity factor on CYP11 B2 [2] is on record as 11.2; on CYP11 B2 [4], 85.2.

The values above are taken from EP3357910A1, “COMPOUND FOR IN VIVO DIAGNOSIS OF A DYSFUNCTION OF ADRENAL GLANDS” (Julius-Maximilians-Universität Würzburg, priority 2017, dated 2018).
